Entries after “also recorded” stand apart in the source; their conditions may differ.
Biological target: T1, FUS GFP (Homo sapiens, UniProt P35637)
T1 construct: His MBP (N, cleaved yes); made in house; host or cells: baculovirus/insect cell expression system
T1 sequence (P35637 1-526): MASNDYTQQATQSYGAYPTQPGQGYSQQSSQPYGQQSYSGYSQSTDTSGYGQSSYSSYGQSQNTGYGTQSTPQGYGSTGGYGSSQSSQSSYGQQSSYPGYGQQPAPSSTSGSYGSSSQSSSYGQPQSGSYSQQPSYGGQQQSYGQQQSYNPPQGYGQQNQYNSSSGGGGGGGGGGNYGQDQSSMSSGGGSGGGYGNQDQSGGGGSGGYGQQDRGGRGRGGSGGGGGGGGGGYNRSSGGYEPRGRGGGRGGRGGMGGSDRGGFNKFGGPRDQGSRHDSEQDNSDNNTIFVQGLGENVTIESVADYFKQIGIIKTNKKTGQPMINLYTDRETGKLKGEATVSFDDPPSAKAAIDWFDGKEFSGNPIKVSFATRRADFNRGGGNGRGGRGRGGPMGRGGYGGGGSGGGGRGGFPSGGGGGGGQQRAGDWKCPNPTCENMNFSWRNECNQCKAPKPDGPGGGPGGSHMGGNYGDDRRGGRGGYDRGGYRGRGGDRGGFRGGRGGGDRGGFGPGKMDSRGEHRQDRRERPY
Assay: In vitro purified FUS GFP droplet screen
Type: biochemical
Details: low salt conditions, 1 mM DTT, up to 100 μM compound
Description: Compounds that can directly interact with FUS were of primary interest, therefore the inventors performed a follow up screen for action of compounds on FUS droplet formation in vitro (FIG. 1D). […] Hits were identified by the effect on number of FUS droplets formed and the partition of FUS into the droplets formed under low salt conditions in vitro in the presence of 1 mM DTT to mimic the reducing intracellular environment (FIG. 1E).
The effect of compounds on FUS GFP droplets in vitro was assessed in 384 well plate format. The compound volume (in DMSO) necessary for 1, 3, 10, 30 or 100 μM final concentration were added by acoustic dispensing (Labcyte Echo 550) to 96 well plate wells containing 3 μl FUS GFP diluted in 50 mM Tris. HCl pH 7.4, 1 mM DTT (for low salt assays). Final DMSO concentration was 0.01 to 1%. Using a Freedom Evo 200 liquid handling workstation (TECAN) the FUS GFP/compound mixture was diluted in 7 μl assay buffer containing 50 mM Tris. HCl pH 7.4, 1 mM DTT, 50 mM KCl and 0.7 μM FUS GFP. Compound/FUS GFP and assay buffer were mixed by a standardised pipetting procedure then split to four wells in clear bottom 384 well plates then immediately imaged using a CellVoyager CV7000 automated spinning disc confocal microscope (as above). […] Droplet number and FUS GFP partition into droplets were analysed with a fixed intensity threshold using ImageJ.

## NC(=O)CCCCC1CCSS1 (racemic) [lipoamide, 5-(1,2-dithiolan-3-yl)pentanamide]
  FUS GFP droplet number, partition into droplets and droplet size: increase condensate droplet number, partition into droplets and the droplets were larger; also recorded: larger drops

Reference: patent publication US12422427B2, “Compounds for treatment of diseases and methods of screening therefor” (Max-Planck-Gesellschaft zur Förderung der Wissenschaften …, priority 2018, dated 2025)
